Values quoted from earlier work as cited in patent US5993851A, “Method for preparing biphasic multilamellar lipid vesicles” (PharmaDerm Laboratories, Ltd., priority 1998, dated 1999).

System: genital warts

In the case of interferon alpha, the “Clinical outcome in words” value (in vivo) is listed as “fairly successful” and the side effects (systemic application (i.m. injection), genital warts) is listed as “fever, myalgias, headache, nausea, fatigue”.
